Experimental data taken from US10543194B2, “Organic compounds” (INTRA-CELLULAR THERAPIES, INC., priority 2014, dated 2020).

Legend:
[1] = system: cGMP levels in the striatum; test: Measurements of cGMP in mouse brain in vivo; settings: mice, 3 mg/kg i.p., 15, 30 or 60 min, compared to Bay 60-7550 (3 mg/kg)
Description: Striatum are dissected from the mouse brains and assayed for levels of cGMP. Trichloroacetic acid (TCA) is added to tissue samples for a final concentration of 5% TCA and the tissue is immediately sonicated in solution and stored on ice. The sonicated sample is centrifuged at 15,000×g for 20 min at 4° C. to remove the precipitated protein. To extract the TCA, the sample is washed three times in water saturated ether. The samples are then dried under vacuum (Speedvac, Savant SPD111V) at room temperature and re-suspended in 100 μL EIA buffer. […] Each sample is tested in duplicate in precoated assay plates alongside the 8-point cGMP standard dilutions. In addition, blank, maximum binding (B0) and non-specific binding wells are included. To all wells containing 50 μL sample or standard, equal volumes of AChE-linked cGMP and cGMP antibody are added. The plate is incubated at 4° C. for 18 hours. The wells are then washed 5 times with wash buffer. Detection reagent containing acetylthiocholine and […] is added and the plate is incubated at room temperature until the OD of the B0 wells is at least 0.5 as recorded by the SoftMax 4.8 software (Molecular Devices, Sunnyvale, Calif.). Each data point is converted to % B/B0 (100*[sample or standard OD−average non-specific binding)/(average B0−average non-specific binding)]). […]

[2] = Pharmacokinetic study in mice (plasma and brain availability); assay type: in vivo; settings: 10 mg/kg PO, compared to Bay 60-7550
Description: Mice are given a single oral dose of the compound of Example 22 (10 mg/kg, PO) and plasma and brain availability are measured (0.25-4 h) using HPLC and LC-MS using methods analogous to those described in Zhao et al., J. Chromatogr. B. Analyt. Technol. Biomed. Life Sci. (2005) 819(1):73-80 and Appels, N. M., et al., Rapid Commun. Mass Spec. 2005. 19(15): p. 2187-92.

SMILES: COc1ccc2[nH]c(=O)c3c(C)nn(-c4cc(OCC5CCC5)ccc4Cl)c3c2n1 [Example 22, 1-(2-Chloro-5-(cyclobutylmethoxy)phenyl)-8-methoxy-3-methyl-1H-pyrazolo[4,3-c][1,5]naphthyridin-4(5H)-one]
- cGMP levels in the striatum [1]: increases cGMP levels in the striatum
- brain access [2]: good brain access
